Results from BindingDB's records for doi:10.1016/j.ejmech.2017.07.038 (Jain University, 2017).

Assay: Antagonist activity at ER in human MCF7 cells assessed as inhibition of 17beta-estradiol-induced cell proliferation

SMILES: Oc1ccc2c(c1)C(c1ccc(OCCN3CCCCC3)cc1)c1c(sc3cc(O)ccc13)C2 (stereo unspecified)
- IC50: 0.9 nM
